Measured values reported in ChEMBL document CHEMBL4627344, “Synthesis, biological evaluation and virtual screening of some acridone derivatives as potential anticancer agents” (2020).

Assays:
Type in all cases: functional
HL-60(TB) = experiment: Antiproliferative activity against human HL-60(TB) cells assessed as inhibition of cell growth at 10 uM measured after 48 hrs by SRB assay relative to control; conditions: HL-60, 48 h, read-out: GI
NCI-H522 [1] = experiment: Antiproliferative activity against human NCI-H522 cells assessed as inhibition of cell growth at 10 uM measured after 48 hrs by SRB assay relative to control; conditions: NCI-H522, 48 h, read-out: GI
NCI-H226 = experiment: Antiproliferative activity against human NCI-H226 cells assessed as inhibition of cell growth measured after 48 hrs by SRB assay; conditions: NCI-H226, 48 h
SW-620 = experiment: Antiproliferative activity against human SW620 cells assessed as inhibition of cell growth measured after 48 hrs by SRB assay; conditions: SW-620, 48 h
DU-145 [2] = experiment: Antiproliferative activity against human DU145 cells assessed as inhibition of cell growth at 10 uM measured after 48 hrs by SRB assay relative to control; conditions: DU-145, 48 h, read-out: GI
COLO 205 = experiment: Antiproliferative activity against human COLO205 cells assessed as inhibition of cell growth at 10 uM measured after 48 hrs by SRB assay relative to control; conditions: COLO 205, 48 h, read-out: GI
MDA-MB-231 [3] = experiment: Antiproliferative activity against human MDA-MB-231 cells assessed as inhibition of cell growth at 10 uM measured after 48 hrs by SRB assay relative to control; conditions: MDA-MB-231, 48 h, read-out: GI
SF-295 = experiment: Antiproliferative activity against human SF295 cells assessed as inhibition of cell growth at 10 uM measured after 48 hrs by SRB assay relative to control; conditions: SF-295, 48 h, read-out: GI
SF-539 [4] = experiment: Antiproliferative activity against human SF539 cells assessed as inhibition of cell growth measured after 48 hrs by SRB assay; conditions: SF-539, 48 h
MDA-MB-231 [5] = experiment: Antiproliferative activity against human MDA-MB-231 cells assessed as inhibition of cell growth measured after 48 hrs by SRB assay; conditions: MDA-MB-231, 48 h
K562 [6] = experiment: Antiproliferative activity against human K562 cells assessed as inhibition of cell growth at 10 uM measured after 48 hrs by SRB assay relative to control; conditions: K562, 48 h, read-out: GI
DU-145 [7] = experiment: Antiproliferative activity against human DU145 cells assessed as inhibition of cell growth measured after 48 hrs by SRB assay; conditions: DU-145, 48 h
SR = experiment: Antiproliferative activity against human SR cells assessed as inhibition of cell growth at 10 uM measured after 48 hrs by SRB assay relative to control; conditions: read-out: GI
NCI-H460 [8] = experiment: Antiproliferative activity against human NCI-H460 cells assessed as inhibition of cell growth at 10 uM measured after 48 hrs by SRB assay relative to control; conditions: NCI-H460, 48 h, read-out: GI
KM12 = experiment: Antiproliferative activity against human KM12 cells assessed as inhibition of cell growth measured after 48 hrs by SRB assay; conditions: KM12, 48 h
NCI-H460 [9] = experiment: Antiproliferative activity against human NCI-H460 cells assessed as inhibition of cell growth measured after 48 hrs by SRB assay; conditions: NCI-H460, 48 h
HCT-15 = experiment: Antiproliferative activity against human HCT15 cells assessed as inhibition of cell growth at 10 uM measured after 48 hrs by SRB assay relative to control; conditions: HCT-15, 48 h, read-out: GI
T47D = experiment: Antiproliferative activity against human T47D cells assessed as inhibition of cell growth measured after 48 hrs by SRB assay
U-251 = experiment: Antiproliferative activity against human U251 cells assessed as inhibition of cell growth measured after 48 hrs by SRB assay; conditions: U-251, 48 h
PC-3 = experiment: Antiproliferative activity against human PC3 cells assessed as inhibition of cell growth at 10 uM measured after 48 hrs by SRB assay relative to control; conditions: PC-3, 48 h, read-out: GI
RXF 393 [10] = experiment: Antiproliferative activity against human RXF393 cells assessed as inhibition of cell growth at 10 uM measured after 48 hrs by SRB assay relative to control; conditions: RXF 393, 48 h, read-out: GI
NCI-H23 = experiment: Antiproliferative activity against human NCI-H23 cells assessed as inhibition of cell growth measured after 48 hrs by SRB assay; conditions: NCI-H23, 48 h
SNB-19 = experiment: Antiproliferative activity against human SNB19 cells assessed as inhibition of cell growth measured after 48 hrs by SRB assay; conditions: SNB-19, 48 h
SF-539 [11] = experiment: Antiproliferative activity against human SF539 cells assessed as inhibition of cell growth at 10 uM measured after 48 hrs by SRB assay relative to control; conditions: SF-539, 48 h, read-out: GI
UACC-62 = experiment: Antiproliferative activity against human UACC62 cells assessed as inhibition of cell growth at 10 uM measured after 48 hrs by SRB assay relative to control; conditions: UACC-62, 48 h, read-out: GI
RXF 393 [12] = experiment: Antiproliferative activity against human RXF393 cells assessed as inhibition of cell growth measured after 48 hrs by SRB assay; conditions: RXF 393, 48 h
CAKI-1 [13] = experiment: Antiproliferative activity against human CAKI-1 cells assessed as inhibition of cell growth measured after 48 hrs by SRB assay; conditions: CAKI-1, 48 h
CAKI-1 [14] = experiment: Antiproliferative activity against human CAKI-1 cells assessed as inhibition of cell growth at 10 uM measured after 48 hrs by SRB assay relative to control; conditions: CAKI-1, 48 h, read-out: GI
BT-549 = experiment: Antiproliferative activity against human BT549 cells assessed as inhibition of cell growth at 10 uM measured after 48 hrs by SRB assay relative to control; conditions: BT-549, 48 h, read-out: GI
OVCAR-8 = experiment: Antiproliferative activity against human OVCAR8 cells assessed as inhibition of cell growth measured after 48 hrs by SRB assay; conditions: OVCAR-8, 48 h
HCC 2998 = experiment: Antiproliferative activity against human HCC2998 cells assessed as inhibition of cell growth measured after 48 hrs by SRB assay; conditions: HCC 2998, 48 h
HOP-62 = experiment: Antiproliferative activity against human HOP62 cells assessed as inhibition of cell growth measured after 48 hrs by SRB assay; conditions: HOP-62, 48 h
SNB-75 [15] = experiment: Antiproliferative activity against human SNB75 cells assessed as inhibition of cell growth at 10 uM measured after 48 hrs by SRB assay relative to control; conditions: SNB-75, 48 h, read-out: GI
SNB-75 [16] = experiment: Antiproliferative activity against human SNB75 cells assessed as inhibition of cell growth measured after 48 hrs by SRB assay; conditions: SNB-75, 48 h
K562 [17] = experiment: Antiproliferative activity against human K562 cells assessed as inhibition of cell growth measured after 48 hrs by SRB assay; conditions: K562, 48 h
NCI-H522 [18] = experiment: Antiproliferative activity against human NCI-H522 cells assessed as inhibition of cell growth measured after 48 hrs by SRB assay; conditions: NCI-H522, 48 h

Structure (SMILES)	inhibition of growth at 10 µM (HL-60(TB)) [%]	inhibition of growth at 10 µM (NCI-H522 [1]) [%]	GI50 (SW-620) [µM]	inhibition of growth at 10 µM (DU-145 [2]) [%]	inhibition of growth at 10 µM (COLO 205) [%]	inhibition of growth at 10 µM (MDA-MB-231 [3]) [%]	inhibition of growth at 10 µM (SF-295) [%]	GI50 (SF-539 [4]) [µM]	GI50 (MDA-MB-231 [5]) [µM]	inhibition of growth at 10 µM (K562 [6]) [%]	GI50 (DU-145 [7]) [µM]	inhibition of growth at 10 µM (SR) [%]	inhibition of growth at 10 µM (NCI-H460 [8]) [%]	GI50 (KM12) [µM]	GI50 (NCI-H460 [9]) [µM]	inhibition of growth at 10 µM (HCT-15) [%]	inhibition of growth at 10 µM (PC-3) [%]	inhibition of growth at 10 µM (RXF 393 [10]) [%]	GI50 (NCI-H23) [µM]	GI50 (SNB-19) [µM]	other results
O=C1CC(c2ccccc2)Cc2nc3c(Br)cc(Br)cc3cc21 (configuration not stated)	95.4	91.5	0.0839	99	148	84.9	132	0.192	0.402	86.8	0.0826	80.5	97.7	0.242	0.0423	89.7	77.4	70	0.26	0.406	GI50 (NCI-H226): 0.241 µM; GI50 (T47D): 0.851 µM; GI50 (U-251): 0.421 µM; inhibition of growth at 10 µM (SF-539 [11]): 93.1%; inhibition of growth at 10 µM (UACC-62): 61.7%; GI50 (RXF 393 [12]): 0.0916 µM; GI50 (CAKI-1 [13]): 0.145 µM; inhibition of growth at 10 µM (CAKI-1 [14]): 98.8%; inhibition of growth at 10 µM (BT-549): 94.7%; GI50 (OVCAR-8): 0.507 µM; GI50 (HCC 2998): 0.282 µM; GI50 (HOP-62): 0.18 µM; inhibition of growth at 10 µM (SNB-75 [15]): 64.8%; GI50 (SNB-75 [16]): 0.199 µM; GI50 (K562 [17]): 0.0676 µM; GI50 (NCI-H522 [18]): 0.137 µM
O=C1CC(c2ccccc2)Cc2nc3ccc(Br)cc3cc21 (configuration not stated)	128	104	0.36	103	136	86.8	82.8	0.241	0.598	93.9	0.274	86.9	95.4	0.341	0.344	84	68	71.6	0.616	0.434	GI50 (NCI-H226): 2.25 µM; GI50 (U-251): 0.553 µM; inhibition of growth at 10 µM (SF-539 [11]): 98.4%; inhibition of growth at 10 µM (UACC-62): 63.8%; GI50 (RXF 393 [12]): 0.208 µM; GI50 (CAKI-1 [13]): 0.207 µM; inhibition of growth at 10 µM (CAKI-1 [14]): 69.3%; inhibition of growth at 10 µM (BT-549): 93.5%; GI50 (OVCAR-8): 0.461 µM; GI50 (HCC 2998): 2.58 µM; GI50 (HOP-62): 0.354 µM; inhibition of growth at 10 µM (SNB-75 [15]): 63.4%; GI50 (SNB-75 [16]): 0.21 µM; GI50 (K562 [17]): 0.175 µM; GI50 (NCI-H522 [18]): 0.236 µM
COc1ccc2nc3c(cc2c1)C(=O)CC(C(F)(F)F)C3 (configuration not stated)	115	68.1	3.45	95.7	90.9	40	54.7	1.89	3.98	83.2	0.849	83.6	89.5	0.316	2.61	62.2	67	102	5.15	3.61	GI50 (T47D): 3.29 µM; inhibition of growth at 10 µM (SF-539 [11]): 77.4%; inhibition of growth at 10 µM (UACC-62): 60.2%; GI50 (RXF 393 [12]): 0.562 µM; GI50 (CAKI-1 [13]): 0.69 µM; inhibition of growth at 10 µM (CAKI-1 [14]): 63%; inhibition of growth at 10 µM (BT-549): 39.1%; GI50 (OVCAR-8): 2.04 µM; GI50 (HOP-62): 3.61 µM; inhibition of growth at 10 µM (SNB-75 [15]): 92.1%; GI50 (SNB-75 [16]): 2.16 µM; GI50 (K562 [17]): 0.437 µM; GI50 (NCI-H522 [18]): 0.582 µM
O=C1CC(c2ccccc2)Cc2nc3ccc(Cl)cc3cc21 (configuration not stated)	121	97	0.37	99.8	132	80.5	103	0.219	0.617	79.3	0.334	87	96.7	0.349	0.345	86.1	72.3	78.2	0.517	0.425	GI50 (NCI-H226): 1.61 µM; GI50 (U-251): 0.729 µM; inhibition of growth at 10 µM (SF-539 [11]): 112%; inhibition of growth at 10 µM (UACC-62): 70.7%; GI50 (RXF 393 [12]): 0.195 µM; GI50 (CAKI-1 [13]): 0.151 µM; inhibition of growth at 10 µM (CAKI-1 [14]): 70.8%; inhibition of growth at 10 µM (BT-549): 95.4%; GI50 (OVCAR-8): 0.534 µM; GI50 (HCC 2998): 2.89 µM; GI50 (HOP-62): 0.428 µM; inhibition of growth at 10 µM (SNB-75 [15]): 70.3%; GI50 (SNB-75 [16]): 0.215 µM; GI50 (K562 [17]): 0.119 µM; GI50 (NCI-H522 [18]): 0.314 µM
COc1ccc2nc3c(cc2c1)C(=O)CC(c1ccccc1)C3 (configuration not stated)	102	84.6	0.747	98.9	98.1	45.4	69	1.15	3.42	86.8	0.593	82.3	91.2	0.45	1.71	75.2	71.2	103	6.18	2.62	GI50 (T47D): 3.65 µM; inhibition of growth at 10 µM (SF-539 [11]): 92.1%; inhibition of growth at 10 µM (UACC-62): 63.1%; GI50 (RXF 393 [12]): 0.44 µM; GI50 (CAKI-1 [13]): 0.525 µM; inhibition of growth at 10 µM (CAKI-1 [14]): 68.7%; inhibition of growth at 10 µM (BT-549): 48.3%; GI50 (OVCAR-8): 1.06 µM; GI50 (HOP-62): 1.96 µM; inhibition of growth at 10 µM (SNB-75 [15]): 109%; GI50 (SNB-75 [16]): 0.572 µM; GI50 (K562 [17]): 0.344 µM; GI50 (NCI-H522 [18]): 0.471 µM
